Reference: patent publication US6818235B2, “Beneficial control of energy balance in periparturient cattle” (Church & Dwight Co., Inc., priority 2001, dated 2004)

Tests used:
Type in all cases: in vivo
[1] = test system: mammary glands of Holstein cows; experiment: Mammary gland total parenchymal DNA and RNA-to-DNA ratio at day 15 postpartum; settings: excised mammary glands, five cows per treatment
Source text: (§1) One hundred and twenty Holstein cows who were to begin their second or greater lactation are randomly selected to receive one of four Conjugated Linoleic Acid (CLA) supplementation regimens. Control cows receive no supplemental CLA (0 CLA), cows offered Treatment 1 receive the cis-9, trans-11 CLA isomer (9, 11 CLA), cows offered Treatment 2 receive the trans-10, cis-12 CLA isomer (10, 12 CLA) and cows offered Treatment 3 receive both isomers in a 50:50 mix (mixed CLA).
(§2) Isomers of CLA are obtained at 85% purity and are converted to their amide form (unsubstituted) for a rumen bypass rate of 65%. The remaining 15% of the 85% pure CLA isomers are the other isomers of CLA. Treatments 1 and 2 are formulated to deliver 7 grams of each CLA isomer per cow/day at the intestinal level. Therefore, 13 g/cow/day of the respective CLA amides are included in the daily rations offered as Total Mixed Rations (TMR) (i.e., 13 g CLA amide×85% purity×65% rumen bypass=7.18 g intestinal CLA isomer). Treatment 3 is formulated to deliver 7 grams of both isomers per cow per day in the intestine resulting in a 26 g supplement.
Cows are fed their CLA treatments beginning 7 days prepartum and remain on the supplement until 35 days postpartum. To maintain the diets isoenergetic with equal amounts of added fat to the diets, the CLA amides are substituted for Megalac (calcium salts of palm fatty acids). […]

[2] = test system: Holstein cows; experiment: Calculated net energy balance (net energy intake minus net energy secreted in milk)
Source text: as §1
Isomers of CLA are obtained at 85% purity and are converted to their amide form (unsubstituted) for a rumen bypass rate of 65%. The remaining 15% of the 85% pure CLA isomers are the other isomers of CLA. Treatments 1 and 2 are formulated to deliver 7 grams of each CLA isomer per cow/day at the intestinal level. […]
(§3) Other measurements include: Start-up milk production (defined as colostrum milk secreted in the first 24 hours postpartum) analyzed for milk fat and fatty acid composition; Daily milk production and composition (total fat and protein); Daily dry matter intake (DMI); Calculated net energy balance defined as net energy intake minus net energy secreted in milk expressed in megacalories (Mcal) per day.
Calculated average energy balance postpartum is actual daily […] minus actual daily milk energy outputs.

[3] = test system: Holstein cows; experiment: Milk production and composition of postpartum cows fed CLA amide supplements
Source text: as §1, §2
Cows are fed their CLA treatments beginning 7 days prepartum and remain on the supplement until 35 days postpartum. To maintain the diets isoenergetic with equal amounts of added fat to the diets, the CLA amides are substituted for Megalac (calcium salts of palm fatty acids). Postpartum diets are offered immediately postpartum.
Prepartum diets are formulated to meet or exceed NRC (2000) requirements at a daily intake of 10.6 kg of DM. This is done to assure that all feed is consumed in a 24-hour period. Postpartum diets are also formulated to meet or exceed requirements for a cow producing (ca.) 45 kg of milk daily at ad libitum consumption of DM.
Cows are milked four times per day to assure maximum expression of production potential and are housed and fed in individual tie-stalls to obtain individual estimates of DMI.
as §3

[4] = average for the next 34 days postpartum
[5] = colostrum, first 24 hours postpartum

SMILES: CCCCCC/C=C/C=C\CCCCCCCC(=O)O [9, 11 CLA, cis-9, trans-11 conjugated linoleic acid]
- Total parenchymal DNA, lower compared to 0 CLA group [1]: 18%
- Calculated average energy blance postpartum [2, 4]: −1.1c Mcal/d
- Calculated energy balance at the end of day-1 postpartum ([2]; end of day-1 postpartum): −3.6b Mcal
- FCM (fat corrected milk, 4% fat) [3, 4]: 36.88a kg/d
- Milk [3, 4]: 40.2a kg/d
- Milk fat [3, 4]: 1.04a kg/d
- Milk fat % [3, 4]: 3.45a %
- SCFA + MCFA:LCFA (ratio of short plus medium chain to long chain fatty acids in milk fat) [3, 4]: 58.42b
- Startup milk fat % [3, 5]: 8.9c %
- Startup milk fat kg [3, 5]: 1.44b kg
- Startup milk ([3]; colostrum, first 24 hours postpartum, 7 g of each CLA isomer/cow/day at intestinal level): 20.2a kg
- Startup FCM (fat corrected milk, 4% fat) ([3]; first 24 hours postpartum): 35.05c kg
